Holding throughout (format): in vivo
For one test, the system named is Alternaria solani. Description: Test H: tomato early blight, preventive spray on seedlings. The following applies: 200 ppm, 100 = 100% disease control, 0 = no control relative to controls. The text has this: General protocol for preparing test suspensions for Tests A-R: The test compounds were first dissolved in acetone in an amount equal to 3% of the final volume and then suspended at the desired concentration (in ppm) in acetone and purified water (50/50 mix) containing 250 ppm of the surfactant Trem® 014 (polyhydric alcohol esters). The resulting test suspensions were then used in tests A-R. In Tests A-M, compounds were sprayed as a 200 ppm test suspension (equivalent to a rate of 500 g/ha) or as a 40 ppm test suspension to the point of runoff on the test plants. In Tests N-R, compounds were sprayed as a 100 g/ha test suspension (equivalent to a rate of 100 ppm) on the test plants at an application volume of 1000 L/ha. The test suspension was sprayed to the point of run-off on wheat seedlings.

Test [1] concerns Puccinia recondita f. sp. tritici. Description: Test B: wheat leaf rust, preventive spray on wheat seedlings. The conditions noted are these: 200 ppm, 100 = 100% disease control, 0 = no control relative to controls. In outline: (§1)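 Two spray concentrations are used, 40 ppm and 200 ppm, the latter matching a rate of 500 g/ha, applied until run-off. The carrier is half acetone, half purified water with 250 ppm surfactant, and acetone for initial dissolution makes up 3% of the volume.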

The next test concerns Botrytis cinerea. In words: Test F: tomato Botrytis, preventive spray on tomato seedlings. The following applies: 200 ppm, 100 = 100% disease control, 0 = no control relative to controls. In short, it runs like this: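 Preventive run-off spray onto tomato seedlings at 200 ppm (equivalent to 500 g/ha) or 40 ppm. Suspensions: compound predissolved in acetone at 3% of final volume, then taken up in acetone/purified water 50/50 containing 250 ppm Trem® 014 surfactant.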

The next test has as its system Septoria tritici. In words: Test D: wheat leaf blotch, preventive spray on wheat seedlings. The following applies: 200 ppm, 100 = 100% disease control, 0 = no control relative to controls. In outline:
as §1

For the next test, the system named is Fusarium graminearum. In words: whole plant or invertebrate. The conditions noted are these: for Test E disease control rating: 200 ppm, 100 = 100% disease control, 0 = no control relative to controls.
The subject of test [2] is Colletotrichum orbiculare. In words: Test I: cucumber Colletotrichum anthracnose, preventive spray on cucumber seedlings. The conditions noted are these: 100 = 100% disease control, 0 = no control relative to controls; for Test I disease control rating: 200 ppm. In short, it runs like this:
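Preventive foliar spray to run-off on cucumber seedlings, at 200 ppm (stated as equal to 500 g/ha) or 40 ppm. Test suspensions were made in acetone/water 50/50 containing 250 ppm Trem 014, after first dissolving compound in acetone at 3% of final volume.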

The test system of the next test is Septoria nodorum. Description: Test C: wheat glume blotch, preventive spray on wheat seedlings. The following applies: 200 ppm, 100 = 100% disease control, 0 = no control relative to controls. In short, it runs like this: as §1

For the molecule `COC[C@H](C)Nc1nccc(-c2ncnc(Nc3cccc(F)c3)n2)n1` [Compound 5, N-(3-fluorophenyl)-4-[2-[[(1S)-2-methoxy-1-methylethyl]amino]-4-pyrimidinyl]-1,3,5-triazin-2-amine], the pest or weed control at 200 ppm was found to be 0% in the test on Alternaria solani (Alternaria solani, 168 h, read-out: Test H disease control rating); 100% in test [1] (Puccinia recondita, 192 h, read-out: Test B disease control rating); 80% with Botrytis cinerea (Botrytis cinerea, 120 h, read-out: Test F disease control rating); 98% with Septoria tritici (Zymoseptoria tritici, 504 h, read-out: Test D disease control rating); 98% in the test on Fusarium graminearum (Fusarium graminearum, in Triticum aestivum, 192 h, read-out: Test E disease control rating); 99% in test [2] (Colletotrichum orbiculare, 144 h, read-out: Test I disease control rating). Also, the pest or weed control at 200 ppm in the test with Septoria nodorum (Parastagonospora nodorum, 216 h, read-out: Test C disease control rating) was 100%.

Turning to `COCC(C)(C)Nc1nccc(-c2ncnc(Nc3cccc(F)c3)n2)n1` [Compound 6], the “Test H disease control rating” value with Alternaria solani stood at 98%. In addition, the “Test B disease control rating” value in test [1] turned out to be 97%. Further, the “Test F disease control rating” value in the test on Botrytis cinerea amounted to 85%. For the same molecule, the “Test D disease control rating” value in the test with Septoria tritici is given as 58%. The “Test E disease control rating” value with Fusarium graminearum is 84%. In test [2], the “Test I disease control rating” value is on record as 0%. The “Test C disease control rating” value in the test with Septoria nodorum is reported as 100%.

Regarding `CC(CO)Nc1nccc(-c2ncnc(Nc3cccc(F)c3)n2)n1` (stereo not drawn) [Compound 7], the “Test H disease control rating” value in the test on Alternaria solani is 0%. In test [1], the “Test B disease control rating” value is recorded as 99%. Also, the “Test F disease control rating” value in the test on Botrytis cinerea came out at 0%. Moreover, in the test on Septoria tritici, the “Test D disease control rating” value was found to be 87%. The “Test E disease control rating” value in the test on Fusarium graminearum is given as 0%. Also, the “Test I disease control rating” value in test [2] came to 96%. In the test on Septoria nodorum, the “Test C disease control rating” value stood at 100%.

In the case of `CC(=O)OCC(C)Nc1nccc(-c2ncnc(Nc3cccc(F)c3)n2)n1` (stereo not drawn) [Compound 8], in the test with Alternaria solani, the “Test H disease control rating” value was 41%. Further, in test [1], the “Test B disease control rating” value is 97%. Besides, the “Test F disease control rating” value in the test on Botrytis cinerea is given as 0%. The “Test D disease control rating” value with Septoria tritici is reported as 42%. Also, the “Test E disease control rating” value in the test on Fusarium graminearum is 77%. Besides, the “Test I disease control rating” value in test [2] was found to be 0%. For the same molecule, the “Test C disease control rating” value in the test with Septoria nodorum is 95%.

As for `Fc1cccc(Nc2ncnc(-c3ccnc(NC4CC4)n3)n2)c1` [Compound 9], the “Test H disease control rating” value with Alternaria solani is listed as 99%. For the same molecule, the “Test B disease control rating” value in test [1] was determined as 100%. Also, the “Test F disease control rating” value in the test with Botrytis cinerea is recorded as 73%. The “Test D disease control rating” value in the test with Septoria tritici is on record as 20%. In addition, in the test on Fusarium graminearum, the “Test E disease control rating” value is 80%. Further, the “Test I disease control rating” value in test [2] amounted to 100%. For the same molecule, the “Test C disease control rating” value with Septoria nodorum is reported as 99%.

Regarding `CC(C)(C)Nc1nccc(-c2ncnc(Nc3cccc(F)c3)n2)n1` [Compound 10], in the test on Alternaria solani, the “Test H disease control rating” value stood at 97%. Further, the “Test B disease control rating” value in test [1] stood at 93%. In addition, in the test with Botrytis cinerea, the “Test F disease control rating” value is 0%. For the same molecule, the “Test D disease control rating” value with Septoria tritici is 10%. Also, the “Test E disease control rating” value with Fusarium graminearum is reported as 61%. Also, in test [2], the “Test I disease control rating” value was 99%. The “Test C disease control rating” value with Septoria nodorum is given as 100%.

On to `COC[C@H](C)Nc1nccc(-c2ncnc(Nc3ccc(Cl)cc3)n2)n1` [Compound 15], for which the “Test H disease control rating” value in the test with Alternaria solani turned out to be 90%. The “Test B disease control rating” value in test [1] is given as 32%. Also, in the test on Botrytis cinerea, the “Test F disease control rating” value is recorded as 0%. In addition, the “Test D disease control rating” value in the test with Septoria tritici is reported as 0%. The “Test E disease control rating” value in the test on Fusarium graminearum is listed as 0%. Moreover, the “Test I disease control rating” value in test [2] was determined as 93%. In the test on Septoria nodorum, the “Test C disease control rating” value stood at 92%.

Take `COC[C@H](C)Nc1nccc(-c2ncnc(Nc3ccccc3F)n2)n1` [Compound 17]: the “Test H disease control rating” value with Alternaria solani is reported as 90%. The “Test B disease control rating” value in test [1] is given as 86%. The “Test F disease control rating” value in the test with Botrytis cinerea amounted to 97%. For the same molecule, the “Test D disease control rating” value in the test with Septoria tritici is given as 66%. Besides, the “Test E disease control rating” value in the test with Fusarium graminearum was found to be 0%. The “Test I disease control rating” value in test [2] is given as 98%. Also, in the test on Septoria nodorum, the “Test C disease control rating” value is listed as 99%.

As to `COC[C@H](C)Nc1nccc(-c2ncnc(Nc3ccc(C)cc3)n2)n1` [Compound 20], the “Test H disease control rating” value with Alternaria solani turned out to be 96%. The “Test B disease control rating” value in test [1] was determined as 74%. Also, the “Test F disease control rating” value in the test on Botrytis cinerea turned out to be 99%. In addition, the “Test D disease control rating” value in the test on Septoria tritici is given as 20%. The “Test E disease control rating” value in the test on Fusarium graminearum is on record as 91%. For the same molecule, the “Test I disease control rating” value in test [2] amounted to 0%. Besides, the “Test C disease control rating” value in the test on Septoria nodorum is 100%.

(Values after US8026359B2, “Fungicidal heterocyclic amines” (E.I. du Pont de Nemours and Company, priority 2007, dated 2011).)
